Experiments:
[1] = biological target: Gamma-aminobutyric acid receptor subunit alpha-1 (Rattus norvegicus) (UniProt P62813); assay: Activity at rat wild type GABAA alpha-1-beta-2-gamma-2 receptor expressed in xenopus oocytes assessed as GABA-elicited response by two electrode voltage clamp method relative to control
[2] = Displacement of [3H]Ro15-1788 from rat GABAA alpha-1-beta-2-gamma-2 receptor expressed in HEK293 cells after 1 hr assessed as residual binding by liquid scintillation counting

Sequence of Gamma-aminobutyric acid receptor subunit alpha-1 (Rattus norvegicus) (P62813 whole entry, looked up): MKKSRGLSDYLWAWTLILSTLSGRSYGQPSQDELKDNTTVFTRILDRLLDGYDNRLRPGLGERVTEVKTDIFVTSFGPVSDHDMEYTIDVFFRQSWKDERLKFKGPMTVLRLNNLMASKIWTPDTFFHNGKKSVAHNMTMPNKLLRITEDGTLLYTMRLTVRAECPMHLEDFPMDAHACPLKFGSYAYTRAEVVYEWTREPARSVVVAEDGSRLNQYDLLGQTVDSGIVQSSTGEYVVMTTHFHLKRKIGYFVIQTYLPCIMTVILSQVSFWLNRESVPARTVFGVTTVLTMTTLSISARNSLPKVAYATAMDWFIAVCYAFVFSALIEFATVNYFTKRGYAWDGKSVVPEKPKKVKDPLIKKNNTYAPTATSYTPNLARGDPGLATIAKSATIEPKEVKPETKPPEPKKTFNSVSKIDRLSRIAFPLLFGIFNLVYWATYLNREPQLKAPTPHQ

Q: What does the source list for `CCOC(=O)c1ncn2c1CN(C)C(=O)c1cc(N=C=S)ccc1-2` [8-Isothiocyanato-5-methyl-6-oxo-5,6-dihydro-4H-2,5,10b-triaza-benzo[e]azulene-3-carboxylic acid ethyl ester]?
A: EC50 [1]: 250 nM; Kd [2]: 878 nM

Q: Which EC50 [1] does the source give for `CCOC(=O)c1ncn2c1CN(C)C(=O)c1cc(N=[N+]=[N-])ccc1-2` [RO-154513] here?
A: 1.1 nM
